Experimental data: patent US11066398B2, “Small molecule c-Myc inhibitors” (THE SCRIPPS RESEARCH INSTITUTE, priority 2013, dated 2021)
≈ marks a conversion by molar mass, not a printed value. Entries after “also recorded” stand apart in the source; their conditions may differ. Like-named read-outs stand apart in the source and are kept apart here.

Assays:
[1] = system: QEF transformed by methylcholanthrene (QT6); settings: 25 or 50 μM, 24 hrs
MYC = assay: Myc levels by Western blot in MDA-MB-231 and NCI-H460 cells; type: cell-based, human; settings: 20 μM, 24 hrs
Description: (§1) NCI-H460 cells were grown in RPMI medium, and MDA-MB-231 cells were grown in DMEM medium; both media contained 10% FBS. KJ-Pyr-9 and 10058-F4 were added at a concentration of 20 μM and the cells were treated for 24 hrs before Western blot analysis.
(§2) Interference with Myc transcriptional activity of Myc affects the transcription of a large number of target genes and can function as activator or repressor. […] NDRG1 is a direct transcriptional target of Myc that acts as a repressor of this gene. For comparison, we used the previously identified inhibitor of MYC-MAX dimerization that binds to the disordered monomer and prevents Myc from adopting a conformation needed for the interaction with MAX (Wang et al., Mol. Cancer Ther. 6:2399-2408, 2007; and Huang et al., Exp. Hematol. 34:1480-1489, 2006). Both KJ-Pyr-9 and 10058-F4 cause an increase of NDRG1 expression (FIG. 4).

ATG-Myc = ATG-Myc (Homo sapiens, UniProt P01106); assay: Myc-induced oncogenic transformation (focus assay) in chicken embryo fibroblasts; type: cell-based; settings: for Inhibition of ATG-Myc focus formation: CEF focus assay, concentration of 10 μM; for Inhibition of Myc oncogenic activity in CEF transformation assay: ATG-Myc; for EOT (efficiency of transformation): focus counts in the presence of inhibitor over focus counts of control plates, CEF infected with RCAS ATG-Myc
Chain of ATG-Myc (P01106 whole entry): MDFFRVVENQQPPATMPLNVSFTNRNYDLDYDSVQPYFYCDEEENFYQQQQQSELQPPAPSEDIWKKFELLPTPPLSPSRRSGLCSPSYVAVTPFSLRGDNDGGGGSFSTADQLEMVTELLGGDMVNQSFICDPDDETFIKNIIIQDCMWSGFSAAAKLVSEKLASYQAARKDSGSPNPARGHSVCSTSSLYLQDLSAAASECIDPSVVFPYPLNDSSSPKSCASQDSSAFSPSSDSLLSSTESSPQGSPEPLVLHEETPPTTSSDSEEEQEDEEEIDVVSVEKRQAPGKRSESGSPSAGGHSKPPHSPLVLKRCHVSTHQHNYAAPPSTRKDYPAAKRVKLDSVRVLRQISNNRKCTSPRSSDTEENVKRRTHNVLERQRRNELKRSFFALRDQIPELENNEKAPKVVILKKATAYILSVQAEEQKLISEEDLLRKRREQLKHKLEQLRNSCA

MYC^332-439 with MAX = MYC^332-439 with MAX (Homo sapiens, UniProt P01106); settings: HEK293 cells, 20 μM, compared to PKA RII:RII control biosensor
Chain of MYC^332-439 with MAX (P01106 347-454): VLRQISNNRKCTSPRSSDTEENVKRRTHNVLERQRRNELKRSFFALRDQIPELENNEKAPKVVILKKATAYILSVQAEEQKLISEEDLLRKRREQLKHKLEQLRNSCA
Description: (§5) We used an efficient and sensitive PCA biosensor which is based on the PPI involving the full length MAX protein and the C-terminal MAX-interaction-domain in MYC (MYC^332-439).
(§6) HEK293 cells were grown in Dulbecco's Modified Eagle's Medium (DMEM) supplemented with 10% fetal bovine serum (FBS). The indicated Rluc-PCA expression constructs were transiently overexpressed in a 24-well plate format. […] Following treatment, the growth medium was exchanged and cells were resuspended in phosphate buffered saline (PBS). Cell suspensions were transferred to white walled 96-well plates and were subjected to bioluminescence analysis using the LMax II 384 luminometer (Molecular Devices). Rluc bioluminescence signals were integrated for 10 sec following addition of the Rluc substrate benzyl-coelenterazine to intact cells (5 μM; Nanolight).

[2] = system: cells transformed by v-myc (Q8, QEF/MC29)
[3] = system: NDRG1 (N-myc downregulated gene 1); assay: NDRG1 expression by Western blot in MDA-MB-231 and NCI-H460 cells; type: cell-based, human; settings: 20 μM, 24 hrs
Description: as §1, §2

SUM-159PT = settings: 120 hrs, 2.5% FBS
v-Src = v-Src (Rous sarcoma virus subgroup A, UniProt P00524); settings: CEF, dose response
Chain of v-Src (P00524 whole entry): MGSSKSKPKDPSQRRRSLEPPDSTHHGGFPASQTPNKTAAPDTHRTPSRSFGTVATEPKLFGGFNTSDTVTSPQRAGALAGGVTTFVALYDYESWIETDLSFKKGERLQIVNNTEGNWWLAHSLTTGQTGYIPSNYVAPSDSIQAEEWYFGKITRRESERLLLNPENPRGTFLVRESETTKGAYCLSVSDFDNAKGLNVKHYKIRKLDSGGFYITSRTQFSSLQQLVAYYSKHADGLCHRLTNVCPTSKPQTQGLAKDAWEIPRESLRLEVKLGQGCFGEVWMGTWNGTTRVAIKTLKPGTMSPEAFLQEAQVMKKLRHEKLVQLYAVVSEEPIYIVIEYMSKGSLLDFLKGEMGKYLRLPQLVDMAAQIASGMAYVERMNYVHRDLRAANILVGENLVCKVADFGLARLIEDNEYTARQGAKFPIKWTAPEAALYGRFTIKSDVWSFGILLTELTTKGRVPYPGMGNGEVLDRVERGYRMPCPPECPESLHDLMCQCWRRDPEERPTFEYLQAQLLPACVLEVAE
Description: (§7) Data from a representative experiment conducted with the cells derived from a single chicken embryo.
(§8) The assay of oncogene-induced cellular transformation in CEF was also used to determine selectivity of KJ-Pyr-9 for Myc.
(§9) Assay for oncogenic transformation in cell culture. […] CEF were infected with a series of ten-fold dilutions of the indicated virus. Compounds were added to the nutrient agar overlay. Additional compound-containing overlay was added every 3 days until experimental end point.

[4] = system: xenograft of MDA-MB-231 cells; assay: MDA-MB-231 xenograft in nude mice; type: in vivo, mouse; settings: 10 mg/kg daily i.p.
Description: When tumors reached a volume of 100 mm^3 half of the mice were given daily i.p. injections of 10 mg/kg KJ-PYR-9 and the other half received vehicle only. Tumor growth was followed for 31 days. (A) Tumor volumes of treated and untreated animals. (B) Tumor weights of treated and untreated animals. (C) Time course of tumor volumes.
To test the in vivo effectiveness of KJ-Pyr-9, nude mice received a xenograft of MDA-MB-231 cells suspended in Matrigel and injected subcutaneously into the left and right flanks. When the tumors had reached an average volume of 100 mm^3, mice were treated daily with 10 mg/kg KJ-Pyr-9 or vehicle control by intraperitoneal injection for 31 days. […] At the conclusion of the experiment the tumors were extracted and weighed. […] Treatment with KJ-Pyr-9 had no effect on the body weight of the animals.
Xenograft experiments. […] Tumor volume and mouse weight were measured daily. […] Tumors were weighed.
Statistical methods. Tumor volumes were calculated using (length)×(width)^2. Tumor volumes were evaluated using Efron's Bootstrap (ISBN:0412042312) procedures as implemented in the R statistics program (Wu and Houghton, J. Biopharma. Stat. 19:755-762, 2009). Mean volumes and 90% confidence intervals were determined using bootstrap resampling with 10^6 randomizations and graphed using the ggplot2 package (ISBN:0387981403). P-values were determined using the resampling permutation method with 10^6 randomizations.

[5] = system: normal quail embryo fibroblasts (QEF); settings: 25 or 50 μM, 24 hrs
[6] = system: QEF oncogenically transformed by the v-jun oncogene (VJ); settings: 25 or 50 μM, 24 hrs
v-Jun = v-Jun (Avian sarcoma virus, UniProt P05411); settings: CEF, dose response
Chain of v-Jun (P05411 whole entry): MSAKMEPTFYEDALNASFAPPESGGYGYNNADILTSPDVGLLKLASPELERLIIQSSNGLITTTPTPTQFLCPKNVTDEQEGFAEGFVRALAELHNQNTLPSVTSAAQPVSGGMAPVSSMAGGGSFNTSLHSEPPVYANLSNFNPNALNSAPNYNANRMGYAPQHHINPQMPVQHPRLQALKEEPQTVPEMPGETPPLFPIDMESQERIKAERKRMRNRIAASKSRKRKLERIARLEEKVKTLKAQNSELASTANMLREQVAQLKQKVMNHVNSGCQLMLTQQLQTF
Description: as §7, §8, §9

N-Myc = N-Myc (Homo sapiens, UniProt P04198); settings: CEF, dose response
Chain of N-Myc (P04198 whole entry, species assumed): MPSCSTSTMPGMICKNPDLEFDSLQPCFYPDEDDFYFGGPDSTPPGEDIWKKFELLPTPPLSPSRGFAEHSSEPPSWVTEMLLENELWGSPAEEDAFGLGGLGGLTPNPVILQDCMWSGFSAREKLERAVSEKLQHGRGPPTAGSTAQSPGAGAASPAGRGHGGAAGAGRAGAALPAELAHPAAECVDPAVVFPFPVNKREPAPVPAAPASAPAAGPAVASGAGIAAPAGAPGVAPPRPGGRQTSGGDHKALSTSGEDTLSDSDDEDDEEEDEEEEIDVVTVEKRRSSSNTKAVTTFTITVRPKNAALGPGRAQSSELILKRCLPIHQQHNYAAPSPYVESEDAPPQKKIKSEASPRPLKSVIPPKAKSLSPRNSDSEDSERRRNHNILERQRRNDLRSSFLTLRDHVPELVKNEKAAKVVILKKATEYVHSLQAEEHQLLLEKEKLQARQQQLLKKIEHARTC
Description: as §7, §8, §9

K-562 = settings: K-562, 25 or 50 μM, 24 hrs
Solubility in water = type: physicochemical
[7] = Pharmacokinetics and tolerability in mice; type: in vivo, mouse; settings: for concentration at 4 h: ip, mice, 10 mg/kg intraperitoneally
Description: (§3) In vivo activity of KJ-Pyr-9: Previous Myc inhibitors have not been effective in animal model studies. These failures resulted from insufficient affinity toward Myc and poor pharmacokinetic properties.
(§4) Pharmacokinetics. Three mice were injected with 10 mg/kg KJ-Pyr-9 dissolved in 10:10:80 Tween-80:DMSO:5% Dextrose/water intraperitoneally. At 4 hours concentrations of KJ-Pyr-9 in the plasma and in the brain were 3.5 and 12.4 μM respectively. Rats were dosed with 1 mg/kg i.v.; elimination half lives in plasma were approximately 1.84 h (rats).

MAX homodimerization = MAX homodimerization (Homo sapiens, UniProt P61244); settings: HEK293 cells, 20 μM
Chain of MAX homodimerization (P61244 whole entry): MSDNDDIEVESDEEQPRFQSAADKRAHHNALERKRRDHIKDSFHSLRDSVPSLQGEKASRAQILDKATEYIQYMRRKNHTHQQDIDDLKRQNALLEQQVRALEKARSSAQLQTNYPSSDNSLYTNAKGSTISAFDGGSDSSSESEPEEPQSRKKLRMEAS
Description: as §5, §6

MOLT-4 = settings: MOLT-4, 25 or 50 μM, 24 hrs
SW-480 = settings: SW-480, 25 or 50 μM, 24 hrs
NDRG1 = settings: 10 mg/kg daily i.p., Western blot of frozen tumor samples
Description: In order to determine drug activity in tumor cells, protein lysates were prepared from frozen tumor samples and analyzed by Western blot.
Xenograft experiments. […] Cells were suspended in high concentration Matrigel (BD Biosciences) prior to injection. Xenograft tumors were allowed to grow until the average volume of the tumors reached 100 mm^3 as measured by external calipers. At this point, the mice were divided into two groups. […] Tumor volume and mouse weight were measured daily. Vehicle used in all cases was 10:10:80 DMSO:Tween-80:5% dextrose in water. The mice were treated for a period of 31 days. At the end of the experiment, the mice were euthanized and tumors excised. Tumors were weighed. Samples of each tumor were fixed in formalin for histology and frozen for Western blotting. All vertebrate experiments were conducted with the approval of the TSRI IACUC.

[8] = system: Burkitt's lymphoma cell lines (Akata, Ramos, Raji); settings: 72 hours
Description: (A) Akata, (B) Ramos, (C) Raji. 10^3 cells were seeded per well on 96-well plates and were treated with the indicated concentrations of KJ-Pyr-9 for 72 hours. Cell proliferation was determined by resazurin fluorescence.

Pharmacokinetics in rats = type: in vivo, rat; settings: 1 mg/kg i.v.
Description: as §3, §4

HL-60 = settings: HL-60, 25 or 50 μM, 24 hrs
NCI-H460 = settings: NCI-H460, 72 hrs, 2.5% FBS
MDA-MB-231 = settings: MDA-MB-231, 216 hrs, 2.5% FBS
human fibroblasts (hFB) = settings: 25 or 50 μM, 24 hrs
v-src, and v-jun = settings: CEF specificity assay
Description: as §9
The specificity of the inhibitory activities of the analog compounds was also examined.

NC(=O)c1ccc(-c2cc(-c3ccc([N+](=O)[O-])cc3)nc(-c3ccco3)c2)cc1 [CG-RS-44, 4-(2-(furan-2-yl)-6-(4-nitrophenyl)pyridin-4-yl)benzamide]
Cell growth [1]: only slightly impaired in their growth
Effect on Myc levels (MYC): only a slight effect
Dose dependence of inhibition of ATG-Myc focus formation (ATG-Myc; 0-20 μM (0, 1.25, 2.5, 5, 10, and 20 μM)): dose-dependent inhibition
Comparison of IC50 values for ATG-Myc focus formation (ATG-Myc; CEF assay): better than all analogs tested
Inhibition of ATG-Myc focus formation (ATG-Myc): no foci formation
Inhibition of Myc oncogenic activity in CEF transformation assay (ATG-Myc; listed as KJ-Pyr-9): effective; also recorded: strongly inhibited
Complex formation of MYC^332-439 with MAX (Rluc PCA) (MYC^332-439 with MAX): selectively reduced complex formation
Cell growth [2]: significantly more affected
NDRG1 expression [3]: increase
Cell proliferation (SUM-159PT): inhibited
Inhibition of oncogenic transformation by v-Src (v-Src): unaffected
Body weight of the animals ([4]; 31 days): no effect
Tumor volume ([4]; by day 31): had not increased significantly
Tumor weight ([4]; end of experiment (31 days)): halt tumor growth
Onset of inhibition of tumor growth ([4]; nude mice): noted after eight days of treatment
Cell growth [5]: only slightly impaired in their growth
Cell growth [6]: only slightly impaired in their growth
Inhibition of oncogenic transformation by v-Jun (v-Jun): inhibited at significantly higher concentrations
Inhibition of oncogenic activity of N-Myc (N-Myc): strongly inhibited
Cell proliferation (K-562): strongly inhibited
solubility (Solubility in water): 12.5 µM (≈ 4.82 µg/mL)
Acute toxicity ([7]; dose of 10 mg/kg): no signs of acute toxicity
concentration at 4 h ([7]; mouse, brain, read-out: Concentration in the brain): 12.4 µM
Blood brain barrier penetration ([7]; mouse, in vivo): crossed the blood brain barrier
Brain versus blood concentration ([7]; mouse, in vivo): higher concentrations in brain tissue than in the blood
concentration at 4 h ([7]; mouse, plasma, read-out: Concentration in the plasma): 3.5 µM
MAX homodimerization (Rluc PCA) (MAX homodimerization): interfered with MAX homodimerization, albeit to a lesser degree
Cell proliferation (MOLT-4): strongly inhibited
Cell proliferation (SW-480): not affected
Expression of NDRG1 in tumor lysates (NDRG1): significantly enhanced
Cell proliferation [8]: very sensitive
Elimination half life in plasma (Pharmacokinetics in rats): approximately 1.84 h
Cell proliferation (HL-60): strongly inhibited
Cell proliferation (NCI-H460): inhibited
Cell proliferation (MDA-MB-231): inhibited
Cell proliferation (human fibroblasts (hFB)): not affected

N#Cc1ccc(-c2cc(-c3ccc(C(N)=O)cc3)cc(-c3ccco3)n2)cc1 [CG-RS-47]
Inhibition of ATG-Myc focus formation (ATG-Myc): no foci formation
Specificity for inhibiting Myc over v-src, 111047R and v-jun (v-src, and v-jun): some degrees of specificity

NC(=O)c1ccc(-c2cc(-c3ccc([N+](=O)[O-])cc3)nc(-c3ccco3)c2)o1 [CG-RS-50, 5-(2-(furan-2-yl)-6-(4-nitrophenyl)pyridin-4-yl)furan-2-carboxamide]
Inhibition of ATG-Myc focus formation (ATG-Myc): some inhibiting activities
Inhibition of Myc oncogenic activity in CEF transformation assay (ATG-Myc): effective

NC(=O)c1ccc(-c2cc(-c3ccc(C(F)(F)F)cc3)nc(-c3ccco3)c2)cc1 [CG-RS-54]
Inhibition of ATG-Myc focus formation (ATG-Myc): some inhibiting activities

NC(=O)c1ccc(-c2cc(-c3ccc(OC(F)(F)F)cc3)nc(-c3ccco3)c2)cc1 [CG-RS-55]
Inhibition of ATG-Myc focus formation (ATG-Myc): some inhibiting activities

CS(=O)(=O)c1ccc(-c2cc(-c3ccc(C(N)=O)cc3)cc(-c3ccco3)n2)cc1 [CG-RS-58]
Inhibition of ATG-Myc focus formation (ATG-Myc): no inhibition

NC(=O)c1ccc(-c2cc(-c3ccc(SC(F)(F)F)cc3)nc(-c3ccco3)c2)cc1 [CG-RS-61]
Inhibition of ATG-Myc focus formation (ATG-Myc): no inhibition

COC(=O)c1ccc(-c2cc(-c3ccc(C(N)=O)cc3)cc(-c3ccco3)n2)cc1 [CG-RS-64]
Inhibition of ATG-Myc focus formation (ATG-Myc): no inhibition

COC(=O)c1cccc(-c2cc(-c3ccc(C(N)=O)cc3)cc(-c3ccco3)n2)c1 [CG-RS-70]
Cell growth in CEF focus assay (ATG-Myc): slight decrease in cell growth
Inhibition of ATG-Myc focus formation (ATG-Myc): no foci formation

NC(=O)c1ccc(-c2cc(-c3ccc(Br)cc3)nc(-c3ccc([N+](=O)[O-])cc3)c2)cc1 [CG-RS-90]
Inhibition of ATG-Myc focus formation (ATG-Myc): no inhibition

NC(=O)c1ccc(-c2cc(-c3ccc([N+](=O)[O-])cc3)nc(-c3ccccc3Br)c2)cc1 [CG-RS-91]
Inhibition of ATG-Myc focus formation (ATG-Myc): no inhibition

NC(=O)c1ccc(-c2cc(-c3ccc([N+](=O)[O-])cc3)nc(-c3cccc(Br)n3)c2)cc1 [CG-RS-106]
Inhibition of ATG-Myc focus formation (ATG-Myc): no inhibition

NC(=O)c1ccc(-c2cc(-c3ccc([N+](=O)[O-])cc3)nc(-c3ccc(Br)cn3)c2)cc1 [CG-RS-123]
Inhibition of ATG-Myc focus formation (ATG-Myc): no inhibition

NC(=O)c1ccc(-c2cc(-c3ccc([N+](=O)[O-])cc3)nc(-c3ccccn3)c2)cc1 [CG-RS-128]
Inhibition of ATG-Myc focus formation (ATG-Myc): no inhibition

NC(=O)c1ccc(-c2cc(-c3ccncc3)nc(-c3ccc([N+](=O)[O-])cc3)c2)cc1 [CG-RS-129]
Cell growth in CEF focus assay (ATG-Myc): slight decrease in cell growth
Inhibition of ATG-Myc focus formation (ATG-Myc): no foci formation
Specificity for inhibiting Myc over v-src, 111047R and v-jun (v-src, and v-jun): some degrees of specificity

CCc1ccc(/C=C2/SC(=S)NC2=O)cc1 [Compound 10058-F4, reference compound]
Effect on Myc levels (MYC): strong decrease
NDRG1 expression [3]: increase

NC(=O)c1ccc(-c2ccc(-c3cc(-c4ccccc4)nc(-c4ccco4)c3)cc2)cc1 [KJ-Pyr-4, 4′-(2-(furan-2-yl)-6-phenylpyridin-4-yl)-[1,1′-biphenyl]-4-carboxamide]
EOT (efficiency of transformation) (ATG-Myc): 1.12

COc1ccc(-c2cc(-c3ccc(C(N)=O)o3)cc(-c3ccco3)n2)cc1 [KJ-Pyr-6, 5-(2-(furan-2-yl)-6-(4-methoxyphenyl)pyridin-4-yl)furan-2-carboxamide]
EOT (efficiency of transformation) (ATG-Myc): 0.79
